These are literature values, as cited in patent publication US12383538B2, “Use of mTOR inhibitors for prevention of intestinal polyp growth and cancer” (priority 2013, dated 2025).

The data set concerns colorectal adenomas. Conditions: adults with FAP, 6-month trial.

With `Cc1ccc(-c2cc(C(F)(F)F)nn2-c2ccc(S(N)(=O)=O)cc2)cc1` [celecoxib], the tolerability entry is listed as “well tolerated”.
